Experimental data reported in patent publication US9040663B2, “Melanocortin receptor-specific peptides” (AstraZeneca AB, priority 2009, dated 2015).
Where two headings read alike, the source gives them in different places.

Legend:
MC1-R = experiment: Competitive inhibition binding assay using [I125]-NDP-α-MSH, MC1-R; conditions: membranes of B-16 mouse melanoma cells (endogenous MC1-R), in some instances HEK-293 hMC1-R
Protocol: 7.1 Competitive Inhibition Assay using [I^125]-NDP-α-MSH.
A competitive inhibition binding assay was performed for exemplified peptides according to the invention using membrane homogenates prepared from HEK-293 cells that express recombinant hMC4-R, hMC3-R, or hMC5-R, and from B-16 mouse melanoma cells (containing endogenous MC1-R). In some instances, HEK-293 cells that express recombinant hMC1-R were employed. Assays were performed in 96 well GF/B Millipore multiscreen filtration plates (MAFB NOB10) pre-coated with 0.5% bovine serum albumin (Fraction V). Membrane homogenates were incubated with 0.2 nM (for hMC4-R) 0.4 nM (for MC3-R and MC5-R) or 0.1 nM (for mouse B16 MC1-R or hMC1-R) [I^125]-NDP-α-MSH (Perkin Elmer) and increasing concentrations of test peptides of the present invention in buffer containing 25 mM HEPES buffer (pH 7.5) with 100 mM NaCl, 2 mM CaCl2, 2 mM MgCl2, 0.3 mM 1,10-phenanthroline, and 0.2% bovine serum albumin. After incubation for 60 minutes at 37° C., the assay mixture was filtered and the membranes washed three times with ice-cold buffer. Filters were dried and counted in a gamma counter for bound radioactivity. […] Maximal specific binding (100%) was defined as the difference in radioactivity (cpm) bound to cell membranes in the absence and presence of 1 μM NDP-α-MSH. […] Each assay was conducted in triplicate and the actual mean values are described, with results less than 0% reported as 0%. Ki values for test peptides of the present invention were determined using Graph-Pad Prism® curve-fitting software.

hMC4-R [1] = molecular target: T1, hMC4-R (Homo sapiens (Human), UniProt P32245); experiment: High and low density hMC4-R functional assay (cAMP, HEK293-T-REx-MC4-R cells); assay type: cell-based; conditions: for Emax: NDP-α-MSH = 100%, read-out: Intrinsic Activity (%)
T1 sequence (P32245 whole entry): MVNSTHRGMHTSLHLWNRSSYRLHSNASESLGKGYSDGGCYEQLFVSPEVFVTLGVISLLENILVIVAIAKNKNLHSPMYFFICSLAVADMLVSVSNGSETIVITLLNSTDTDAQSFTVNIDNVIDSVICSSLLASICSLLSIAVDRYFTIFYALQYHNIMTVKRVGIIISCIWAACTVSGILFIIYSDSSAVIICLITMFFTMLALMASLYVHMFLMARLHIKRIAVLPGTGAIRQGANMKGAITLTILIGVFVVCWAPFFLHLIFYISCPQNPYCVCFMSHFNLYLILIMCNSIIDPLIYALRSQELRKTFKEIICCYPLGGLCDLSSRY

hMC4-R [2] = molecular target: T1, hMC4-R; experiment: Competitive inhibition binding assay using [I125]-NDP-α-MSH, hMC4-R; conditions: membranes of HEK-293 cells expressing recombinant hMC4-R, read-out: MC4-R Ki
[3] = 0.1 ng/mL Doxycycline (low density hMC4-R system)
[4] = 10 ng/mL Doxycycline (high density hMC4-R system)

Compound	Ki (MC1-R) [nM]	EC50 (hMC4-R [1]; [3]) [nM]	Emax (hMC4-R [1]; [3]) [%]	EC50 (hMC4-R [1]; [4]) [nM]	Emax (hMC4-R [1]; [4]) [%]	Ki (hMC4-R [2]) [nM]
CC(=O)N[C@@H](CCCNC(=N)N)C(=O)N[C@H]1CCC(=O)NCCC[C@@H](C(N)=O)NC(=O)[C@H](Cc2c[nH]c3ccccc23)NC(=O)[C@H](CCCNC(=N)N)NC(=O)[C@@H](Cc2ccccc2Cl)NC(=O)[C@H]([C@@H](C)O)NC1=O [Example 32, Ac-Arg-cyclo(Glu-Thr-D-Phe(2-Cl)-Arg-Trp-Orn)-NH2]	540	18	34		96	11
CC(=O)N[C@@H](CCCNC(=N)N)C(=O)N[C@H]1CCC(=O)NCCC[C@@H](C(N)=O)NC(=O)[C@H](Cc2c[nH]c3ccccc23)NC(=O)[C@H](CCCNC(=N)N)NC(=O)[C@@H](Cc2cccc(Cl)c2)NC(=O)[C@@H]2C[C@@H](O)CN2C1=O [Example 37, Ac-Arg-cyclo(Glu-Hyp-D-Phe(3-Cl)-Arg-Trp-Orn)-NH2]	430		6	0.55	90	2
CC(=O)N[C@@H](CCCNC(=N)N)C(=O)N[C@H]1CCC(=O)NCCC[C@@H](C(N)=O)NC(=O)[C@H](Cc2c[nH]c3ccccc23)NC(=O)[C@H](CCCNC(=N)N)NC(=O)[C@@H](Cc2ccc(Cl)cc2Cl)NC(=O)[C@H](CCN)NC1=O [Example 4, Ac-Arg-cyclo(Glu-Dab-D-Phe(2,4-diCl)-Arg-Trp-Orn)-NH2]	0.5		11	0.245	100	0.055
CC(=O)N[C@@H](CCCNC(=N)N)C(=O)N[C@H]1CCC(=O)NCCC[C@@H](C(N)=O)NC(=O)[C@H](Cc2c[nH]c3ccccc23)NC(=O)[C@H](CCCNC(=N)N)NC(=O)[C@@H](Cc2ccc(C#N)cc2)NC(=O)[C@H]([C@@H](C)O)NC1=O [Example 44, Ac-Arg-cyclo(Glu-Thr-D-Phe(4-CN)-Arg-Trp-Orn)-NH2]	1620	11	22		99	18
CC(=O)N[C@@H](CCCNC(=N)N)C(=O)N[C@H]1CCC(=O)NCCC[C@@H](C(N)=O)NC(=O)[C@H](Cc2c[nH]c3ccccc23)NC(=O)[C@H](CCCNC(=N)N)NC(=O)[C@@H](Cc2ccccc2Cl)NC(=O)[C@H](CCN)NC1=O [Example 1, Ac-Arg-cyclo(Glu-Dab-D-Phe(2-Cl)-Arg-Trp-Orn)-NH2]	1	0.34	91	0.045	96	3
CC(=O)N[C@@H](CCCNC(=N)N)C(=O)N[C@H]1CCC(=O)NCCC[C@@H](C(N)=O)NC(=O)[C@H](Cc2c[nH]c3ccccc23)NC(=O)[C@H](CCCNC(=N)N)NC(=O)[C@@H](Cc2ccc(C#N)cc2)NC(=O)[C@@H]2C[C@@H](O)CN2C1=O [Example 40, Ac-Arg-cyclo(Glu-Hyp-D-Phe(4-CN)-Arg-Trp-Orn)-NH2]	880		8	0.5	93	2
CC(=O)N[C@@H](CCCNC(=N)N)C(=O)N[C@H]1CCC(=O)NCCC[C@@H](C(N)=O)NC(=O)[C@H](Cc2c[nH]c3ccccc23)NC(=O)[C@H](CCCNC(=N)N)NC(=O)[C@@H](Cc2cccc(F)c2)NC(=O)[C@H](CCN)NC1=O [Example 10, Ac-Arg-cyclo(Glu-Dab-D-Phe(3-F)-Arg-Trp-Orn)-NH2]	2	0.45	77	0.17	94	2
CC(=O)N[C@@H](CCCNC(=N)N)C(=O)N[C@H]1CCC(=O)NCCC[C@@H](C(N)=O)NC(=O)[C@H](Cc2c[nH]c3ccccc23)NC(=O)[C@H](CCCNC(=N)N)NC(=O)[C@@H](Cc2ccc(Cl)c(Cl)c2)NC(=O)[C@H](CCN)NC1=O [Example 5, Ac-Arg-cyclo(Glu-Dab-D-Phe(3,4-diCl)-Arg-Trp-Orn)-NH2]	0.2		5	0.38	92	0.055

Continued, values first:

Ki (MC1-R) [nM]	EC50 (hMC4-R [1]; [3]) [nM]	Emax (hMC4-R [1]; [3]) [%]	EC50 (hMC4-R [1]; [4]) [nM]	Emax (hMC4-R [1]; [4]) [%]	Ki (hMC4-R [2]) [nM]	Compound
260	3	53	0.135	85	20	CC(=O)N[C@@H](CCCNC(=N)N)C(=O)N[C@H]1CCC(=O)NCCC[C@@H](C(N)=O)NC(=O)[C@H](Cc2c[nH]c3ccccc23)NC(=O)[C@H](CCCNC(=N)N)NC(=O)[C@@H](Cc2cc(F)cc(F)c2)NC(=O)[C@H](CC(N)=O)NC1=O [Example 76, Ac-Arg-cyclo(Glu-Asn-D-Phe(3,4-diF)-Arg-Trp-Orn)-NH2]
25	0.31	36	0.373	100	0.3	CC(=O)N[C@@H](CCCNC(=N)N)C(=O)N[C@H]1CCC(=O)NCCC[C@@H](C(N)=O)NC(=O)[C@H](Cc2c[nH]c3ccccc23)NC(=O)[C@H](CCCNC(=N)N)NC(=O)[C@@H](Cc2ccccc2Cl)NC(=O)[C@H](COCc2ccccc2)NC1=O [Example 47, Ac-Arg-cyclo(Glu-Ser(Bzl)-D-Phe(2-Cl)-Arg-Trp-Orn)-NH2]
8	2	74	0.235	93	8	CC(=O)N[C@@H](CCCNC(=N)N)C(=O)N[C@H]1CCC(=O)NCCC[C@@H](C(=O)O)NC(=O)[C@H](Cc2c[nH]c3ccccc23)NC(=O)[C@H](CCCNC(=N)N)NC(=O)[C@@H](Cc2ccccc2Cl)NC(=O)[C@H](CCCN)NC1=O [Example 49, Ac-Arg-cyclo(Glu-Orn-D-Phe(2-Cl)-Arg-Trp-Orn)-OH]
1750	6	13	0.65	86	7	CC(=O)N[C@H](CCCNC(=N)N)C(=O)N[C@H]1CC(=O)NCCCC[C@@H](C(N)=O)NC(=O)[C@H](Cc2c[nH]c3ccccc23)NC(=O)[C@H](CCCNC(=N)N)NC(=O)[C@@H](Cc2cccc(Cl)c2)NC(=O)[C@H](CCC(N)=O)NC1=O [Example 80, Ac-D-Arg-cyclo(Asp-Gln-D-Phe(3-Cl)-Arg-Trp-Lys)-NH2]
335	1	86	0.085	91	9	CC(=O)N[C@@H](CCCNC(=N)N)C(=O)N[C@H]1CCCNC(=O)CC[C@@H](C(N)=O)NC(=O)[C@H](Cc2c[nH]c3ccccc23)NC(=O)[C@H](CCCNC(=N)N)NC(=O)[C@@H](Cc2ccccc2F)NC(=O)[C@H](CC(N)=O)NC1=O [Example 71, Ac-Arg-cyclo(Orn-Asn-D-Phe(2-F)-Arg-Trp-Glu)-NH2]
150	0.25	76	0.095	92	3	CC(=O)N[C@@H](CCCNC(=N)N)C(=O)N[C@H]1CCC(=O)NCCC[C@@H](C(N)=O)NC(=O)[C@H](Cc2c[nH]c3ccccc23)NC(=O)[C@H](CCCNC(=N)N)NC(=O)[C@@H](Cc2ccc(F)cc2)NC(=O)[C@H](CC(N)=O)NC1=O [Example 69, Ac-Arg-cyclo(Glu-Asn-D-Phe(4-F)-Arg-Trp-Orn)-NH2]
405		68		100	5	CC(=O)N[C@@H](CCCNC(=N)N)C(=O)N[C@H]1CCCNC(=O)CC[C@@H](C(N)=O)NC(=O)[C@H](Cc2c[nH]c3ccccc23)NC(=O)[C@H](CCCNC(=N)N)NC(=O)[C@@H](Cc2ccccc2C)NC(=O)[C@H](CC(N)=O)NC1=O [Example 74, Ac-Arg-cyclo(Orn-Asn-D-Phe(2-Me)-Arg-Trp-Glu)-NH2]
89	0.45	62	0.14	95	1	CC(=O)N[C@@H](CCCNC(=N)N)C(=O)N[C@H]1CCC(=O)NCCC[C@@H](C(N)=O)NC(=O)[C@H](Cc2c[nH]c3ccccc23)NC(=O)[C@H](CCCNC(=N)N)NC(=O)[C@@H](Cc2ccc(F)cc2)NC(=O)[C@@H]2C[C@@H](O)CN2C1=O [Example 60, Ac-Arg-cyclo(Glu-Hyp-D-Phe(4-F)-Arg-Trp-Orn)-NH2]
12	0.37	30	0.157	93	0.35	CC(=O)N[C@@H](CCCNC(=N)N)C(=O)N[C@H]1CCC(=O)NCCC[C@@H](C(N)=O)NC(=O)[C@H](Cc2c[nH]c3ccccc23)NC(=O)[C@H](CCCNC(=N)N)NC(=O)[C@@H](Cc2ccccc2Cl)NC(=O)[C@H]([C@@H](C)OCc2ccccc2)NC1=O [Example 63, Ac-Arg-cyclo(Glu-Thr(Bzl)-D-Phe(2-Cl)-Arg-Trp-Orn)-NH2]
